Results from patent US20160046618A1, “Cyclopropyl Fused Thiazin-2-Amine Compounds as Beta-Secretase Inhibitors and Methods of Use” (AMGEN INC., priority 2014, published 2016).

Legend:
human recombinant BACE1 = human recombinant BACE1 (Homo sapiens (Human), UniProt P56817); experiment: In vitro enzymatic BACE1 FRET assay; format: biochemical; details: read-out: IC50 IP (μM) BACE1 enzyme
In short: (§1)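 Read-out: dequenched fluorescence, excitation 488 nm, emission 590 nm, after proteolysis of a quenched peptide spanning the BACE cleavage site. Substrate at 50 nM, 1 h incubation, termination by Tris addition to neutral pH.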

human recombinant BACE2 = human recombinant BACE2 (Homo sapiens (Human), UniProt Q9Y5Z0); experiment: In vitro enzymatic BACE2 FRET assay; format: biochemical; details: read-out: IC50 IP (μM) BACE2 enzyme
Chain of human recombinant BACE2 (Q9Y5Z0 63-518): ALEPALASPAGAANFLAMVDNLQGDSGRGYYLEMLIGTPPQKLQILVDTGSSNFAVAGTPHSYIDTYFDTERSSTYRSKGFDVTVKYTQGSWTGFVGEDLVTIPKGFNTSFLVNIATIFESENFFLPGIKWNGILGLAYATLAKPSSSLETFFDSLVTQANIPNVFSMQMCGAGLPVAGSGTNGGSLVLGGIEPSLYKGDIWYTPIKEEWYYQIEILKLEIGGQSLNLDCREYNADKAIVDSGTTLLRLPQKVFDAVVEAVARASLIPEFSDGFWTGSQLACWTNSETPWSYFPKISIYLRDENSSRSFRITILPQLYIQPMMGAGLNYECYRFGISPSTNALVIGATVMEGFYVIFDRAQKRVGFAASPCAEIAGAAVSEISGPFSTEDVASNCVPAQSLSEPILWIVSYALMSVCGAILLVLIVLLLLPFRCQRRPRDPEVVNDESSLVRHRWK
In short: as §1

[1] = system: Aβ40 in conditioned medium of cells stably expressing Amyloid Precursor Protein (APP); experiment: In vitro BACE-1 cell-based assay (Aβ40 sandwich ELISA); details: read-out: IC50 IP (μM) BACE1 cell
In short: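 Read-out: time-resolved fluorescence (Streptavidin-Europium) of Aβ40 captured by pAb40 and detected with biotinylated 6E10 from supernatants of APP-stable cells. Cells were exposed to compound for 24 h, 10-point dose response, top dose 100 μM or 10 μM, 0.1% DMSO. IC50 fitted to percent of control.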

Recombinant Cat D = Recombinant Cat D (Homo sapiens (Human), UniProt P07339); experiment: In vitro enzymatic Cathepsin D (Cat D) FRET assay; format: biochemical; details: read-out: IC50 IP (μM) CatD
Chain of Recombinant Cat D (P07339 65-412): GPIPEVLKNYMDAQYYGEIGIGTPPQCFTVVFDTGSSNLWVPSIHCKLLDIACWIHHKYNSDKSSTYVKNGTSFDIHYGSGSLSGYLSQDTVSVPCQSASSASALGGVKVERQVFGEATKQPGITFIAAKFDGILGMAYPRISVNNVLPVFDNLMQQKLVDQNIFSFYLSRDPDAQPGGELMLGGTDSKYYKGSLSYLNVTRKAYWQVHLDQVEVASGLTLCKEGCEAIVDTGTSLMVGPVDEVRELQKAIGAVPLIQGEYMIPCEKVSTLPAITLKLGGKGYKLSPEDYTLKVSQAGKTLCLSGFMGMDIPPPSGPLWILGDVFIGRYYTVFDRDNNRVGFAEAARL
In short: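 Human Cat D expressed in CHO cells was incubated for one hour in 0.05 M citrate pH 3.5, 5 mM CHAPS, 10% DMSO final, with 20 nM quenched FRET peptide substrate. Reactions were stopped with Tris buffer raising pH to neutrality. Cleavage was read as fluorescence at excitation 500 nm, emission 580 nm.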

Chain of human recombinant BACE1 (P56817 46-501): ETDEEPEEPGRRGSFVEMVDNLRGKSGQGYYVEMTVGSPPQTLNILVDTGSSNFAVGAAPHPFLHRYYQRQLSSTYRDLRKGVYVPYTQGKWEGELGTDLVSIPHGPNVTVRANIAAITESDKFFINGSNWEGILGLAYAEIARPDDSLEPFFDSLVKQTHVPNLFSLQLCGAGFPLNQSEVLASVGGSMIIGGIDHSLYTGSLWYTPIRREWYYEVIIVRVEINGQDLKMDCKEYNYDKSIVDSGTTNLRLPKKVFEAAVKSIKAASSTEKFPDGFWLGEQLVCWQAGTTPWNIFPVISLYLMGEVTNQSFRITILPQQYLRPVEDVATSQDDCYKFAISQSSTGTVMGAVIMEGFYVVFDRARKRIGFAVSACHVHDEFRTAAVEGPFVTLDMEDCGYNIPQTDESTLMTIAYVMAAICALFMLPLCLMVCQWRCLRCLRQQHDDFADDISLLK

Structure (SMILES)	IC50 (human recombinant BACE1)	IC50 (human recombinant BACE2)	IC50 [1]	IC50 (Recombinant Cat D)
COC[C@]12C[C@H]1[C@@](C)(c1cc(NC(=O)c3cnc(OCC4CC4)cn3)ccc1F)N=C(N)S2 [Example 1053, N-(3-((1S,5S,6S)-3-amino-1-(methoxymethyl)-5-methyl-2-thia-4-azabicyclo[4.1.0]hept-3-en-5-yl)-4-fluorophenyl)-5-(cyclopropylmethoxy)-2-pyrazinecarboxamide]	0.0059 µM	0.108 µM	0.0029 µM	1420 µM
COC[C@]12C[C@H]1[C@@](C)(c1cc(NC(=O)c3cnc(OCC4CCC4)cn3)ccc1F)N=C(N)S2 [Example 1054, N-(3-((1S,5S,6S)-3-amino-1-(methoxymethyl)-5-methyl-2-thia-4-azabicyclo[4.1.0]hept-3-en-5-yl)-4-fluorophenyl)-5-(cyclobutylmethoxy)-2-pyrazinecarboxamide]	0.0014 µM	0.171 µM	0.011 µM	862 µM
COC[C@]12C[C@H]1[C@@](C)(c1cc(NC(=O)c3cnc(OCC4COC4)cn3)ccc1F)N=C(N)S2 [Example 1055, N-(3-((1S,5S,6S)-3-amino-1-(methoxymethyl)-5-methyl-2-thia-4-azabicyclo[4.1.0]hept-3-en-5-yl)-4-fluorophenyl)-5-(3-oxetanylmethoxy)-2-pyrazinecarboxamide]	0.0079 µM	0.498 µM	0.022 µM	1330 µM
COC[C@]12C[C@H]1[C@@](C)(c1cc(NC(=O)c3cnc(OCC(C)C)cn3)ccc1F)N=C(N)S2 [Example 1056, N-(3-((1S,5S,6S)-3-amino-1-(methoxymethyl)-5-methyl-2-thia-4-azabicyclo[4.1.0]hept-3-en-5-yl)-4-fluorophenyl)-5-(2-methylpropoxy)-2-pyrazinecarboxamide]	0.0014 µM	0.317 µM	0.018 µM	1240 µM
COC[C@]12C[C@H]1[C@@](C)(c1cc(NC(=O)c3cnc(OCC(F)F)cn3)ccc1F)N=C(N)S2 [Example 1057, N-(3-((1S,5S,6S)-3-amino-1-(methoxymethyl)-5-methyl-2-thia-4-azabicyclo[4.1.0]hept-3-en-5-yl)-4-fluorophenyl)-5-(2,2-difluoroethoxy)-2-pyrazinecarboxamide]	0.0023 µM	0.158 µM	0.0033 µM	> 400 µM
COC[C@]12C[C@H]1[C@@](C)(c1cc(NC(=O)c3cnc(OCC4CCO4)cn3)ccc1F)N=C(N)S2 (stereo partly drawn) [Example 1058, N-(3-((1S,5S,6S)-3-amino-1-(methoxymethyl)-5-methyl-2-thia-4-azabicyclo[4.1.0]hept-3-en-5-yl)-4-fluorophenyl)-5-(oxetan-2-ylmethoxy)pyrazine-2-carboxamide]	> 0.016 µM	0.498 µM	0.01 µM	> 400 µM
CC#CCCOc1cnc(C(=O)Nc2cc(F)c(F)c([C@@]3(C)N=C(N)S[C@@]4(COC)C[C@H]43)c2)cn1 [Example 1059, N-(3-((1S,5S,6S)-3-amino-1-(methoxymethyl)-5-methyl-2-thia-4-azabicyclo[4.1.0]hept-3-en-5-yl)-4,5-difluorophenyl)-5-(3-pentyn-1-yloxy)-2-pyrazinecarboxamide]	0.011 µM	0.069 µM	0.02 µM	1320 µM
C#CCCOc1cnc(C(=O)Nc2cc(F)c(F)c([C@@]3(C)N=C(N)S[C@@]4(COC)C[C@H]43)c2)cn1 [Example 1060, N-(3-((1S,5S,6S)-3-amino-1-(methoxymethyl)-5-methyl-2-thia-4-azabicyclo[4.1.0]hept-3-en-5-yl)-4,5-difluorophenyl)-5-(3-butyn-1-yloxy)-2-pyrazinecarboxamide]	0.0074 µM	0.13 µM	0.0076 µM	> 400 µM
COC[C@]12C[C@H]1[C@@](C)(c1cc(NC(=O)c3cnc(OCC4(C)CC4)cn3)cc(F)c1F)N=C(N)S2 [Example 1061, N-(3-((1S,5S,6S)-3-amino-1-(methoxymethyl)-5-methyl-2-thia-4-azabicyclo[4.1.0]hept-3-en-5-yl)-4,5-difluorophenyl)-5-((1-methylcyclopropyl)methoxy)-2-pyrazinecarboxamide]	0.0047 µM	0.17 µM	0.0039 µM	> 400 µM
COC[C@]12C[C@H]1[C@@](C)(c1cc(NC(=O)c3cnc(OCC4(C)COC4)cn3)cc(F)c1F)N=C(N)S2 [Example 1062, N-(3-((1S,5S,6S)-3-amino-1-(methoxymethyl)-5-methyl-2-thia-4-azabicyclo[4.1.0]hept-3-en-5-yl)-4,5-difluorophenyl)-5-((3-methyl-3-oxetanyl)methoxy)-2-pyrazinecarboxamide]	> 16 µM	0.658 µM	0.022 µM	> 400 µM
COC[C@]12C[C@H]1[C@@](C)(c1cc(NC(=O)c3cnc(OCCF)cn3)cc(F)c1F)N=C(N)S2 [Example 1064, N-(3-((1S,5S,6S)-3-amino-1-(methoxymethyl)-5-methyl-2-thia-4-azabicyclo[4.1.0]hept-3-en-5-yl)-4,5-difluorophenyl)-5-(2-fluoroethoxy)-2-pyrazinecarboxamide]	0.0027 µM	0.081 µM	0.0047 µM	> 400 µM
COC[C@]12C[C@H]1[C@@](C)(c1cc(NC(=O)c3cnc(OCC(F)(F)F)cn3)cc(C)c1F)N=C(N)S2 [Example 1065, N-(3-((1S,5S,6S)-3-amino-1-(methoxymethyl)-5-methyl-2-thia-4-azabicyclo[4.1.0]hept-3-en-5-yl)-4-fluoro-5-methylphenyl)-5-(2,2,2-trifluoroethoxy)-2-pyrazinecarboxamide]	0.000256 µM	0.0636 µM	0.00294 µM	1580 µM
COC[C@]12C[C@H]1[C@@](C)(c1cc(NC(=O)c3ccc(Cl)cn3)cc(C)c1F)N=C(N)S2 [Example 1066, N-(3-((1S,5S,6S)-3-amino-1-(methoxymethyl)-5-methyl-2-thia-4-azabicyclo[4.1.0]hept-3-en-5-yl)-4-fluoro-5-methylphenyl)-5-chloro-2-pyridinecarboxamide]	0.00161 µM	0.00099 µM	0.00347 µM	> 400 µM
COC[C@]12C[C@H]1[C@@](C)(c1cc(NC(=O)c3cnc(OC4COC4)cn3)ccc1F)N=C(N)S2 [Example 1067, N-(3-((1S,5S,6S)-3-amino-1-(methoxymethyl)-5-methyl-2-thia-4-azabicyclo[4.1.0]hept-3-en-5-yl)-4-fluorophenyl)-5-(oxetan-3-yloxy)pyrazine-2-carboxamide]	0.0264 µM	1.63 µM	0.0238 µM	2050 µM
COC[C@]12C[C@H]1[C@@](C)(c1cc(NC(=O)c3cnc(OCC(C)(C)C)cn3)cc(F)c1F)N=C(N)S2 [Example 1069, N-(3-((1S,5S,6S)-3-amino-1-(methoxymethyl)-5-methyl-2-thia-4-azabicyclo[4.1.0]hept-3-en-5-yl)-4,5-difluorophenyl)-5-(neopentyloxy)pyrazine-2-carboxamide]	0.0174 µM	0.878 µM	0.214 µM	1060 µM
COC[C@]12C[C@H]1[C@@](C)(c1cc(NC(=O)c3cnc(OCc4ncco4)cn3)cc(C)c1F)N=C(N)S2 [Example 1071, N-(3-((1S,5S,6S)-3-amino-1-(methoxymethyl)-5-methyl-2-thia-4-azabicyclo[4.1.0]hept-3-en-5-yl)-4-fluoro-5-methylphenyl)-5-(oxazol-2-ylmethoxy)pyrazine-2-carboxamide]	0.000768 µM	0.0304 µM	0.00025 µM	1430 µM
C#CCOc1cnc(C(=O)Nc2cc(C)c(F)c([C@@]3(C)N=C(N)S[C@@]4(C(F)F)C[C@@H]34)c2)cn1 [Example 1072, N-(3-((1S,5S,6S)-3-amino-1-(difluoromethyl)-5-methyl-2-thia-4-azabicyclo[4.1.0]hept-3-en-5-yl)-4-fluoro-5-methylphenyl)-5-(prop-2-yn-1-yloxy)pyrazine-2-carboxamide]	0.00032 µM	0.00983 µM	0.000345 µM	143 µM
Cc1cc(NC(=O)c2cnc(OCC(F)(F)F)cn2)cc([C@@]2(C)N=C(N)S[C@@]3(C(F)F)C[C@@H]23)c1F [Example 1073, N-(3-((1S,5S,6S)-3-amino-1-(difluoromethyl)-5-methyl-2-thia-4-azabicyclo[4.1.0]hept-3-en-5-yl)-4-fluoro-5-methylphenyl)-5-(2,2,2-trifluoroethoxy)pyrazine-2-carboxamide]	0.000842 µM	0.0515 µM	0.00323 µM	1300 µM
Cc1cc(NC(=O)c2cnc(OCc3ncco3)cn2)cc([C@@]2(C)N=C(N)S[C@@]3(C(F)F)C[C@@H]23)c1F [Example 1074, N-(3-((1S,5S,6S)-3-amino-1-(difluoromethyl)-5-methyl-2-thia-4-azabicyclo[4.1.0]hept-3-en-5-yl)-4-fluoro-5-methylphenyl)-5-(oxazol-2-ylmethoxy)pyrazine-2-carboxamide]	0.00057 µM	0.0167 µM	0.000489 µM	1330 µM
